pIC50: −log10 of the molar value.
Experiments:
[1] = Body weight of tumor-bearing mice during oral treatment; format: in vivo, NOD/SCID mice; conditions: oral treatment three times weekly, KPT-276 75 mg/kg or KPT-330 15 mg/kg, n = 6
Procedure: All animal studies were conducted under a protocol (2009A0178-R1) approved by The Ohio State University Institutional Animal Care and Use Committee (IACUC). A subcutaneous (s.c.) tumor model of melanoma was employed to determine whether treatment with the orally bioavailable SINE compounds, KPT-276 (preclinical tool compound) or KPT-330 (currently in Phase 1 studies in humans with advanced cancers), would be effective in decreasing tumor growth in vivo. Female NOD/SCID mice (n = 6 mice/group; 6-8 weeks of age; Jackson Laboratory, Bar Harbor, ME) were injected subcutaneously (s.c.) in the right flank with 2×10^6 human A375 or CHL-1 melanoma cells (Day 0). Once tumors were palpable, mice were randomized to one of […] treatment groups: [a] diluent, [b] KPT-276 (75 mg/kg), or [c] KPT-330 (15 mg/kg). All treatments were administered via oral gavage in a volume of 200 µL three times weekly (Monday, Wednesday, Friday). Bi-dimensional tumor measurements were obtained three times weekly using microcalipers. Mice were euthanized and tumors were collected from all animals once diluent-treated tumors reached a volume of 1500 mm^3. […] The weights of all animals receiving diluent, KPT-276 or KPT-330 were monitored for dosing and to assess toxicity throughout the study.

A375 [2] = test: Apoptosis via Annexin V/PI staining, flow cytometry; format: cell-based; conditions: Homo sapiens, A-375, A375, 72 hr treatment
Procedure: (§1) Phosphatidyl serine exposure was assessed in tumor cells and melanocytes by flow cytometry using APC-Annexin V and propidium iodide (PI; BD Pharmingen, San Diego, CA) as previously described. Each analysis was performed utilizing at least 10,000 events. We considered the Annexin V positive cells (early apoptosis) and Annexin V/PI double positive cells (late apoptosis) cells as the apoptotic cell population. The 4-parameter logistic or Hill model was the assumed dose-response relationship for the in vitro inhibition and cell viability experiments. Nonlinear least squares regression was used to estimate the model parameters and generate 95% confidence intervals for the IC50 estimates. For in vivo experiments, tumor volumes were first log-transformed to meet test assumptions of normality and homoscedasticity. Changes in tumor volumes were analyzed using a two-sample t-test to evaluate the difference from first day of treatment to the last for A375 xenografts (day 17), and from day 1 to day 10 for CHL-1 xenografts as day 10 marks the first mouse sacrificed when 1500 mm^3 tumor volume was reached. ANOVA was used to compare the expression of XPO1 staining among samples from the melanoma tissue core array. The Wilcoxon rank-sum test was used to analyze data comparing growth inhibition and apoptosis of the five metastatic melanoma cell lines to the three melanocyte cell lines.

CHL-1 [3] = test: as above; format: cell-based; conditions: Homo sapiens, CHL-1, 72 hr treatment
Procedure: as §1

[4] = test system: human CHL-1 melanoma xenografts; test: Subcutaneous melanoma xenograft tumor growth; format: in vivo, NOD/SCID mice; conditions: CHL-1 xenograft, oral gavage three times weekly, KPT-276 75 mg/kg (p = 0.0087) or KPT-330 15 mg/kg (p = 0.0002)
Procedure: (§2) All animal studies were conducted under a protocol (2009A0178-R1) approved by The Ohio State University Institutional Animal Care and Use Committee (IACUC). A subcutaneous (s.c.) tumor model of melanoma was employed to determine whether treatment with the orally bioavailable SINE compounds, KPT-276 (preclinical tool compound) or KPT-330 (currently in Phase 1 studies in humans with advanced cancers), would be effective in decreasing tumor growth in vivo. Female NOD/SCID mice (n = 6 mice/group; 6-8 weeks of age; Jackson Laboratory, Bar Harbor, ME) were injected subcutaneously (s.c.) in the right flank with 2×10^6 human A375 or CHL-1 melanoma cells (Day 0). Once tumors were palpable, mice were randomized to one of […] treatment groups: [a] diluent, [b] KPT-276 (75 mg/kg), or [c] KPT-330 (15 mg/kg). All treatments were administered via oral gavage in a volume of 200 µL three times weekly (Monday, Wednesday, Friday). Bi-dimensional tumor measurements were obtained three times weekly using microcalipers. Mice were euthanized and tumors were collected from all animals once diluent-treated tumors reached a volume of 1500 mm^3. For histology studies, a subset of animals (n = 2–3/group) were treated with diluents, KPT-276, or KPT-330 for one week, after which tumors were collected to avoid necrosis. The weights of all animals receiving diluent, KPT-276 or KPT-330 were monitored for dosing and to assess toxicity throughout the study.
as §1, with “The” for “Phosphatidyl serine exposure was assessed in tumor cells and melanocytes by flow cytometry using APC-Annexin V and propidium iodide (PI; BD Pharmingen, San Diego, CA) as previously described. Each analysis was performed utilizing at least 10,000 events. We considered the Annexin V positive cells (early apoptosis) and Annexin V/PI double positive cells (late apoptosis) cells as the apoptotic cell population. The”

[5] = test system: human A375 melanoma xenografts; test: Subcutaneous melanoma xenograft tumor growth; format: in vivo, NOD/SCID mice; conditions: oral gavage three times weekly, KPT-276 75 mg/kg or KPT-330 15 mg/kg, p<0.0001 for both
Procedure: as §2
as §1, with “The” for “Phosphatidyl serine exposure was assessed in tumor cells and melanocytes by flow cytometry using APC-Annexin V and propidium iodide (PI; BD Pharmingen, San Diego, CA) as previously described. Each analysis was performed utilizing at least 10,000 events. We considered the Annexin V positive cells (early apoptosis) and Annexin V/PI double positive cells (late apoptosis) cells as the apoptotic cell population. The”

[6] = design: method as in personal communication, Karyopharm Therapeutics, Inc.; conditions: CD1 mice, oral, 10 mg/kg; ref personal communication, Karyopharm Therapeutics, Inc.; cited from earlier work
A375 [7] = test: Cellular growth assay (MTS), 72 h; format: cell-based, human; conditions: Homo sapiens, A-375, 72 h, A375, 72 hr treatment, read-out: Growth Inhibition IC50
Procedure: (§3) Cells were seeded in 96-well plates (2×10^4) in triplicate and allowed to adhere overnight. Fresh media containing KPT-185, KPT-185-trans, KPT-276, or KPT-330 was added to each well at various concentrations (range = 40–10240 nM) and cells were incubated at 37°C/5% CO2 for 72 hours. Cells treated with DMSO (diluent) and untreated cells served as controls. At this time, the percentage of cell growth was evaluated using the MTS assay (CellTiter 96 AQueous Non-Radioactive Cell Proliferation Assay, Promega) and quantified by determining the optical density at 595 nm using a Bio-Rad iMark™ microplate reader. The 4-parameter logistic or Hill model was the assumed dose-response relationship for the in vitro inhibition and cell viability experiments. Nonlinear least squares regression was used to estimate the model parameters and generate 95% confidence intervals for the IC50 estimates. For in vivo experiments, tumor volumes were first log-transformed to meet test assumptions of normality and homoscedasticity. Changes in tumor volumes were analyzed using a two-sample t-test to evaluate the difference from first day of treatment to the last for A375 xenografts (day 17), and from day 1 to day 10 for CHL-1 xenografts as day 10 marks the first mouse sacrificed when 1500 mm^3 tumor volume was reached. ANOVA was used to compare the expression of XPO1 staining among samples from the melanoma tissue core array. The Wilcoxon rank-sum test was used to analyze data comparing growth inhibition and apoptosis of the five metastatic melanoma cell lines to the three melanocyte cell lines.

CHL-1 [8] = test: Cellular growth assay (MTS), 72 h; format: cell-based, human
Procedure: as §3

A375 xenografts = test: Immunohistochemical staining of xenografts; format: in vivo, NOD/SCID mice; conditions: treated one week
Procedure: as §2
(§4) For analysis of XPO1 expression in human samples, an unstained (5 µm) slide of a commercially available tissue microarray (1 mm cores) containing 56 cases of primary melanoma, 20 cases of metastatic melanoma, and 24 cases diagnosed as nevus (US Biomax, Inc., Catalog #ME1004a) was subjected to immunohistochemical analysis using an antibody targeting XPO1 (Santa Cruz H-300, sc-5595, lot # D0110) according to manufacturer's recommendations (1∶50). For mouse studies, tumor xenografts were fixed in formalin, embedded in paraffin, a sectioned at 4 µm with two sections per slide. […] All samples were analyzed in a blinded fashion by an experienced pathologist (Dr. Krista La Perle). Automatic quantification of immunoreactivity in viable portions of xenograft tissue samples and tissue cores segmented with the TMA Lab (Aperio Technologies, Vista, CA) was performed on whole slide images scanned at 40× magnification (ScanScope XT, Aperio Technologies) using the Positive Pixel Count Algorithm in the ImageScope software, as well as the Color Deconvolution and Cytoplasmic algorithms available in the Image Analysis Toolbox (Aperio Technologies).

CHL-1 xenografts = test: Immunohistochemical staining of xenografts; format: in vivo, NOD/SCID mice; conditions: treated one week
Procedure: as §2, §4

[9] = test system: A375 and CHL-1 cell lines; test: Immunoblot of TP53, CDKN1A after etoposide; format: cell-based, human; conditions: 20 µM etoposide, 24 hours
Procedure: Human melanoma cell lines were seeded in 6-well plates (2×10^5) and allowed to adhere overnight. After treatment for various time points, the cells were harvested then fractionated using NE-PER Nuclear and Cytoplasmic Extraction Reagents from Thermo Scientific following the manufacturer's protocol. Nuclear and cytoplasmic fractions were validated via immunoblot analysis using Lamin B and GAPDH antibodies.
Immunoblots were prepared as previously described and probed with antibodies specific for TP53, CDKN1A (p21), XPO1, HDM2 (MDM2), Lamin B (Santa Cruz Biotechnology, Santa Cruz, CA), pMAPK, PARP (Cell Signaling Technology), GAPDH or β-actin (Sigma). Following incubation with the appropriate horseradish peroxidase-conjugated secondary antibody, immune complexes were detected using the ECL Plus detection kit (Amersham Biosciences, Ayesbury, UK).
Supplementary file pone.0102983.s001.tif: Figure S1 Localization of TP53, CDKN1A, and pMAPK in melanoma cell lines with etoposide. A375 and CHL-1 cell lines were treated with 20 µM of etoposide and harvested after 24 hours of treatment. Lysates were evaluated via immunoblot analysis. Lamin B and GAPDH serve as loading controls for nuclear and cytoplasmic compartments respectively. The data shown are representative of 2 to 3 independent biological experiments. (TIF) Click here for additional data file.

Row | pIC50 (A375 [2]) | pIC50 (CHL-1 [3]) | pIC50 (A375 [7]) | Structure (SMILES) | Body weights of mice during treatment [1] | Tumor growth vs diluent [4] | Tumor growth vs diluent [5] | Bioavailability [6] [%] | Level at Tmax [6] | Tmax [6] [min] | pIC50 (CHL-1 [8]; Homo sapiens, CHL-1, 72 hr treatment, read-out: Growth Inhibition IC50) | Ki67 staining (A375 xenografts) | Levels of nuclear TP53 and pMAPK (IHC) (A375 xenografts; n = 3 vs 2) | Ki67 staining (CHL-1 xenografts) | TP53 expression (IHC) (CHL-1 xenografts; high basal expression) | IC57 value (cytostatic effect) (CHL-1 [8]; CHL-1, 72 hours) [µM] | TP53 upregulation and downstream activation of CDKN1A [9]
1 | 6.95 | 5.11 | 6.92 | O=C(/C=C\n1cnc(-c2cc(C(F)(F)F)cc(C(F)(F)F)c2)n1)NNc1cnccn1 [KPT-330] | remained constant | significantly inhibited | significantly inhibited | ~60 | roughly 2.5 micromolar | 30 | 5.12 | – | – | – | – | – | –
2 | 6.63 | 5.21 | 6.49 | O=C(/C=C\n1cnc(-c2cc(C(F)(F)F)cc(C(F)(F)F)c2)n1)N1CC(F)(F)C1 [KPT-276] | remained constant | significantly inhibited growth | significantly inhibited growth | > 90 | roughly 2.5 micromolar | 60 | – | No significant changes | trend towards increased levels | No significant changes | did not change | 3.8794 | –
3 | – | – | – | COc1cc([C@@H]2c3cc4c(cc3[C@@H](O[C@@H]3O[C@@H]5CO[C@@H](C)O[C@H]5[C@H](O)[C@H]3O)[C@H]3COC(=O)[C@H]23)OCO4)cc(OC)c1O [etoposide, Etoposide] | – | – | – | – | – | – | – | – | – | – | – | – | induced TP53 upregulation

— publication PMC4109950, “Novel Small Molecule XPO1/CRM1 Inhibitors Induce Nuclear Accumulation of TP53, Phosphorylated MAPK and Apoptosis in Human Melanoma Cells” (PLoS ONE, 2014)
